Molecules are shown by their SMILES.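 Following 48 hours of exposure in 96-well plates, responses at five concentrations were used to interpolate endpoints linearly. At the TGI there is no net growth.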

Test systems include NCI-H23 lung; ACHN renal; RXF 393 renal; SNB-19 CNS; MDA-MB-435; SK-MEL-28 melanoma; TK-10 renal; DU-145 prostate; UO-31 renal; NCI-H460 lung; NCI-H226 lung; LOX IMVI melanoma; PC-3 prostate; SK-OV-3 ovarian; OVCAR-8 ovarian.
What all share (test): growth of human tumour cells (NCI), 48 h

`O=C1C(c2c(O)n(-c3ccccc3)c3ccccc23)=Nc2ccccc21`: the TGI in the test with NCI-H23 lung is greater than 100 µM; with ACHN renal, 79.5 µM; in the test with RXF 393 renal, 41.6 µM; in the test with SNB-19 CNS, greater than 100 µM; in the test with MDA-MB-435 it was greater than 100 µM; with SK-MEL-28 melanoma it was greater than 100 µM. The TGI was 53.6 µM in the test on TK-10 renal; greater than 100 µM with DU-145 prostate; greater than 100 µM in the test on UO-31 renal; greater than 100 µM in the test with NCI-H460 lung; 70 µM in the test on NCI-H226 lung; greater than 100 µM in the test on LOX IMVI melanoma. The TGI was 80.9 µM in the test with PC-3 prostate, greater than 100 µM in the test on SK-OV-3 ovarian and greater than 100 µM in the test with OVCAR-8 ovarian.
Consider `O=C1c2cc([N+](=O)[O-])cnc2S(=O)(=O)N1c1ccc(Oc2ccccc2)cc1`, for which the TGI in the test with NCI-H23 lung, in the test with ACHN renal, in the test with RXF 393 renal, in the test with SNB-19 CNS, in the test on MDA-MB-435 and with SK-MEL-28 melanoma was greater than 100 µM each time. Further, the TGI in the test with TK-10 renal, in the test on DU-145 prostate, in the test on UO-31 renal, with NCI-H460 lung, in the test with NCI-H226 lung and with LOX IMVI melanoma was greater than 100 µM in each case. Besides, the TGI with PC-3 prostate, with SK-OV-3 ovarian and with OVCAR-8 ovarian was greater than 100 µM each time.
On to `COc1ccc(/C=N/Nc2nc3ccccc3c(=O)n2-c2ccccc2)cc1`, for which the TGI in the test on NCI-H23 lung, in the test on ACHN renal, with RXF 393 renal, in the test on SNB-19 CNS, with MDA-MB-435 and with SK-MEL-28 melanoma was greater than 100 µM in each case. Further, the TGI in the test on TK-10 renal is greater than 100 µM; in the test on DU-145 prostate it was greater than 100 µM; in the test on UO-31 renal, 14.9 µM; in the test on NCI-H460 lung, greater than 100 µM; with NCI-H226 lung, greater than 100 µM; in the test with LOX IMVI melanoma, greater than 100 µM. Besides, the TGI with PC-3 prostate, with SK-OV-3 ovarian and in the test on OVCAR-8 ovarian was greater than 100 µM in each case.
Consider `O=C(N/N=C1\CCc2ccccc21)N/N=C1\CCc2ccccc21`, for which the TGI in the test with NCI-H23 lung, in the test with ACHN renal, with RXF 393 renal, in the test on SNB-19 CNS, with MDA-MB-435 and in the test with SK-MEL-28 melanoma was greater than 100 µM each time. Moreover, the TGI with TK-10 renal, in the test on DU-145 prostate, in the test with UO-31 renal, in the test on NCI-H460 lung, in the test with NCI-H226 lung and in the test with LOX IMVI melanoma was greater than 100 µM throughout. In addition, the TGI in the test on PC-3 prostate, in the test with SK-OV-3 ovarian and in the test with OVCAR-8 ovarian was greater than 100 µM in each case.
`O=C(c1no[n+]([O-])c1C(=O)c1csc2ccccc12)c1csc2ccccc12`: the TGI was 32 µM with NCI-H23 lung; 16 µM in the test with ACHN renal; 19.4 µM in the test on RXF 393 renal; 32.3 µM with SNB-19 CNS; 21.5 µM with MDA-MB-435; 11 µM with SK-MEL-28 melanoma. Moreover, the TGI in the test on TK-10 renal is 4.9 µM; with DU-145 prostate, 32.3 µM; with UO-31 renal, 1.02 µM; in the test on NCI-H460 lung, 28.3 µM; in the test on NCI-H226 lung it was 35 µM; with LOX IMVI melanoma, 5.37 µM. Also, the values for the TGI in the test with PC-3 prostate, with SK-OV-3 ovarian and in the test with OVCAR-8 ovarian were 8.33 µM, 33 µM and 11.4 µM, respectively.
For `CC(C)c1cc(C(C)C)c(P2(=O)CC3C(Cl)(Cl)C3(C)C2)c(C(C)C)c1` (stereo not given), the TGI amounted to 24.3 µM with NCI-H23 lung; 25.1 µM with ACHN renal; 28.2 µM in the test on RXF 393 renal; 19.4 µM in the test with SNB-19 CNS; 26.8 µM in the test on MDA-MB-435; 31.9 µM in the test on SK-MEL-28 melanoma. The TGI is 24.5 µM with TK-10 renal; 28.9 µM with DU-145 prostate; 3.44 µM with UO-31 renal; 24.4 µM in the test on NCI-H460 lung; 34.3 µM with NCI-H226 lung; 21.5 µM in the test on LOX IMVI melanoma. The TGI with PC-3 prostate came out at 17.8 µM; in the test on SK-OV-3 ovarian it was 31.3 µM; in the test with OVCAR-8 ovarian, 27.8 µM.
`CSC(=S)Nc1cc(C)ccn1`: the TGI in the test on NCI-H23 lung, in the test on ACHN renal, in the test with RXF 393 renal, in the test on SNB-19 CNS, in the test on MDA-MB-435 and with SK-MEL-28 melanoma was greater than 100 µM in each case. Besides, the TGI in the test with TK-10 renal, with DU-145 prostate, in the test with UO-31 renal, in the test on NCI-H460 lung, in the test with NCI-H226 lung and in the test on LOX IMVI melanoma was greater than 100 µM in each case. Besides, the TGI in the test on PC-3 prostate, in the test with SK-OV-3 ovarian and in the test on OVCAR-8 ovarian was greater than 100 µM each time.
`COC(=O)/C=C1/OC(c2ccccc2)=CC1=O`: the TGI in the test on NCI-H23 lung is 42.9 µM; with ACHN renal, greater than 56 µM; with RXF 393 renal, 27.7 µM; in the test with SNB-19 CNS, 32 µM; in the test with MDA-MB-435, 35.5 µM; in the test with SK-MEL-28 melanoma, greater than 58 µM. Moreover, the TGI in the test with TK-10 renal came to 37.2 µM; with DU-145 prostate it was 19.4 µM; in the test on UO-31 renal, 31.7 µM; in the test on NCI-H460 lung, 43.5 µM; in the test on NCI-H226 lung, 67.3 µM; in the test with LOX IMVI melanoma, 30 µM. In addition, the TGI in the test on PC-3 prostate was 40.2 µM; in the test with SK-OV-3 ovarian it was greater than 94.4 µM; in the test with OVCAR-8 ovarian, 35.8 µM.
With `C=C1C(=O)OC2C3C(=C)[C@@H](OC(C)=O)CC3C(C)=CC(OC(=O)C(C)(O)C(C)OC(C)=O)[C@@H]12` (stereo not given in full), the TGI was 27.3 µM with NCI-H23 lung; 24.8 µM in the test with ACHN renal; 17.4 µM in the test with RXF 393 renal; greater than 100 µM in the test with SNB-19 CNS; 28.3 µM with MDA-MB-435; 27.2 µM in the test on SK-MEL-28 melanoma. Besides, the TGI with TK-10 renal stood at 18.4 µM; in the test with DU-145 prostate, 30.3 µM; in the test on UO-31 renal it was 24.9 µM; in the test on NCI-H460 lung it was 44 µM; with NCI-H226 lung, 48.4 µM; with LOX IMVI melanoma, 19.4 µM. In addition, the results for the TGI in the test on PC-3 prostate, with SK-OV-3 ovarian and with OVCAR-8 ovarian were 30.7 µM, greater than 100 µM and 37.9 µM, respectively.
Take `O=C1NC(c2ccccc2)C1N(Cc1ccccc1)Cc1ccccc1` (stereo not given): the TGI in the test on NCI-H23 lung, in the test on ACHN renal, in the test on RXF 393 renal, in the test with SNB-19 CNS, in the test on MDA-MB-435 and with SK-MEL-28 melanoma was greater than 100 µM throughout. The TGI in the test with TK-10 renal, in the test with DU-145 prostate, with UO-31 renal, with NCI-H460 lung, in the test on NCI-H226 lung and in the test with LOX IMVI melanoma was greater than 100 µM each time. Also, the TGI in the test with PC-3 prostate, in the test with SK-OV-3 ovarian and with OVCAR-8 ovarian was greater than 100 µM each time.
In the case of `CC1(C)O[C@@H]([C@@H](O)[C@H](O)C2SCCCS2)[C@@H](CO)O1`, the TGI in the test with NCI-H23 lung, in the test on ACHN renal, with RXF 393 renal, in the test with SNB-19 CNS, in the test on MDA-MB-435 and in the test on SK-MEL-28 melanoma was greater than 100 µM throughout. In addition, the TGI with TK-10 renal, in the test on DU-145 prostate, in the test with UO-31 renal, with NCI-H460 lung, in the test on NCI-H226 lung and with LOX IMVI melanoma was greater than 100 µM in each case. The TGI with PC-3 prostate, with SK-OV-3 ovarian and in the test on OVCAR-8 ovarian was greater than 100 µM each time.

(Values after PubChem BioAssay (NCI).)
